The test system of test [1] is H146 cells. Nature of the test: H146 cell viability using MTT assay. Type of test: cell-based. To be noted: Homo sapiens, NCI-H146, 48 h exposure. Here is the method: MTT colorimetric assay is based on the mitochondrial reduction of tetrazolium salt by living cells. The viable cell number is proportional to the production of formazan salts, which can be read spectrophotometrically at 540 nm.
MOLT-4 and H146 cells were purchased from ATCC and cultivated in RPMI 1640 supplemented with 10% heat inactivated fetal bovine serum, penicillin (100 IU/ml), streptomycin (100 μg/ml) and L-glutamine (2 mM). Cells were cultured at 37° C. in a humidified atmosphere containing 5% CO2. Cells were seeded in 96 microwell plates (150p per well) and exposed to the compounds for 48 h (3.16 fold serially diluted; 9 concentrations each, triplicates). At the end of incubation time, 15 μL of MTT solution (5 mg/ml) were added per well and the cells were incubated for another 4 h. Then, 100 μL of 10% Sodium Dodecyl Sulfate (SDS)/HCl 10 mM were added per well and the plate was incubated overnight, before measurement of optical density at 540 nm. IC50s were calculated using standard four-parametric curve fitting.

Test [2] has as its system MOLT-4 cells. Nature of the test: MOLT-4 cell viability using MTT assay. Type of test: cell-based. To be noted: Homo sapiens, MOLT-4, 48 h, 48 h exposure. Here is the method:
MTT colorimetric assay is based on the mitochondrial reduction of tetrazolium salt by living cells.
Cells were cultured at 37° C. in a humidified atmosphere containing 5% CO2. […] At the end of incubation time, 15 μL of MTT solution (5 mg/ml) were added per well and the cells were incubated for another 4 h. […] IC50s were calculated using standard four-parametric curve fitting.

Test [3] concerns the target His-His-(EK)-hsBCLXL(2-197)[N197C] (Homo sapiens (Human), UniProt Q07817, N197C). The experiment in a line: Fluorescence quenching assay. Type of test: binding. To be noted: 1 nM Cy5-labelled protein, 400 nM PUMA peptide, 2 hours at 23° C.; KI determined from IC50. An outline of the steps: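 Cy5-labelled BCL-xL (1 nM) with TQ5WS quencher-labelled PUMA peptide (400 nM); displacement by compound (11-point dilution) raises fluorescence. Buffer 10 mM HEPES, 150 mM NaCl, 0.05% Tween 20, pH 7.4, 5% DMSO; 2 h at 23° C, Ex 620/Em 680 nm. Ki derived from IC50.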

Molecules are shown by their SMILES.

Sequence of His-His-(EK)-hsBCLXL(2-197)[N197C] (Q07817 2-197 N197C): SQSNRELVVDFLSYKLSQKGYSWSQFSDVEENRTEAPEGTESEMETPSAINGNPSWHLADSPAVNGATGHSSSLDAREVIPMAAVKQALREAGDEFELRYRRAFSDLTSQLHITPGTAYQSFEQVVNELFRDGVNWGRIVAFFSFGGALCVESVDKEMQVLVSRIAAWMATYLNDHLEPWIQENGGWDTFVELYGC

In the case of `Cc1c(Nc2nc3ccccc3s2)nnc2c1CCCN2c1nc(C(=O)O)c(CCCOc2ccc(C#CCN3CCCCC3)cc2F)s1` [Example 46, 2-[3-(1,3-Benzothiazol-2-ylamino)-4-methyl-6,7-dihydro-5H-pyrido[2,3-c]pyridazin-8-yl]-5-[3-[2-fluoro-4-[3-(1-piperidyl)prop-1-ynyl]phenoxy]propyl]thiazole-4-carboxylic acid], the IC50 in test [1] was found to be 11.1 nM; in test [2], 1.2 nM. Also, the Ki in test [3] came to 0.015 nM.

For the compound `Cc1c(Nc2nc3ccccc3s2)nnc2c1CCCN2c1nc(C(=O)O)c(CCCOc2ccc(C#CCN3CCOCC3)cc2F)s1` [Example 47, 2-[3-(1,3-Benzothiazol-2-ylamino)-4-methyl-6,7-dihydro-5H-pyrido[2,3-c]pyridazin-8-yl]-5-[3-[2-fluoro-4-(3-morpholinoprop-1-ynyl)phenoxy]propyl]thiazole-4-carboxylic acid], the results for the IC50 in test [1] and in test [2] were 7.31 nM and 0.957 nM, respectively. For the same compound, in test [3], the Ki came to 0.0089 nM.

With `Cc1c(Nc2nc3ccccc3s2)nnc2c1CCCN2c1nc(C(=O)O)c(CCCOc2ccc(C#CCN3CCN(C)CC3)cc2F)s1` [Example 48, 2-[3-(1,3-Benzothiazol-2-ylamino)-4-methyl-6,7-dihydro-5H-pyrido[2,3-c]pyridazin-8-yl]-5-[3-[2-fluoro-4-[3-(4-methylpiperazin-1-yl)prop-1-ynyl]phenoxy]propyl]thiazole-4-carboxylic acid], the concentration for half-maximal inhibition (IC50) in test [1] came out at 2.25 nM; in test [2], 0.309 nM. Further, in test [3], the Ki turned out to be 0.0016 nM.

Consider `Cc1c(Nc2nc3ccccc3s2)nnc2c1CCCN2c1nc(C(=O)O)c(CCCOc2ccc(C#CCN3CCC(F)(F)CC3)cc2F)s1` [Example 49, 2-{3-[(1,3-Benzothiazol-2-yl)amino]-4-methyl-5H,6H,7H,8H-pyrido[2,3-c]pyridazin-8-yl}-5-(3-{4-[3-(4,4-difluoropiperidin-1-yl)prop-1-yn-1-yl]-2-fluorophenoxy}propyl)-1,3-thiazole-4-carboxylic acid], for which the IC50 in test [1] was 33.4 nM; in test [2] it was 2.13 nM. The Ki in test [3] turned out to be 0.064 nM.

Consider `Cc1c(Nc2nc3ccccc3s2)nnc2c1CCCN2c1nc(C(=O)O)c(CCCOc2ccc(C#CCN3CCCC(F)(F)C3)cc2F)s1` [Example 50, 2-{3-[(1,3-Benzothiazol-2-yl)amino]-4-methyl-5H,6H,7H,8H-pyrido[2,3-c]pyridazin-8-yl}-5-(3-{4-[3-(3,3-difluoropiperidin-1-yl)prop-1-yn-1-yl]-2-fluorophenoxy}propyl)-1,3-thiazole-4-carboxylic acid], for which the IC50 turned out to be 87.7 nM in test [1] and 3.71 nM in test [2]. Also, in test [3], the Ki came out at 0.071 nM.

For `Cc1c(Nc2nc3ccccc3s2)nnc2c1CCCN2c1nc(C(=O)O)c(CCCOc2ccc(C#CCN(C)C)cc2Cl)s1` [Example 51, 2-{3-[(1,3-Benzothiazol-2-yl)amino]-4-methyl-5H,6H,7H,8H-pyrido[2,3-c]pyridazin-8-yl}-5-(3-{2-chloro-4-[3-(dimethylamino)prop-1-yn-1-yl]phenoxy}propyl)-1,3-thiazole-4-carboxylic acid], the results for the IC50 in test [1] and in test [2] were 9.6 nM and 2.54 nM, respectively. In addition, the Ki in test [3] was determined as 0.012 nM.

As to `Cc1c(Nc2nc3ccccc3s2)nnc2c1CCCN2c1nc(C(=O)O)c(CCCOc2ccc(OCCN3CCCC3)cc2)s1` [Example 52, 2-{3-[(1,3-Benzothiazol-2-yl)amino]-4-methyl-5H,6H,7H,8H-pyrido[2,3-c]pyridazin-8-yl}-5-(3-{4-[2-(pyrrolidin-1-yl)ethoxy]phenoxy}propyl)-1,3-thiazole-4-carboxylic acid], the IC50 in test [1] is 10.7 nM; in test [2], 2.42 nM. The Ki in test [3] turned out to be 0.0013 nM.

In the case of `Cc1c(Nc2nc3ccccc3s2)nnc2c1CCCN2c1nc(C(=O)O)c(CCCOc2ccc(CCN(C)C)cc2F)s1` [Example 53, 2-{3-[(1,3-Benzothiazol-2-yl)amino]-4-methyl-5H,6H,7H,8H-pyrido[2,3-c]pyridazin-8-yl}-5-(3-{4-[2-(dimethylamino)ethyl]-2-fluorophenoxy}propyl)-1,3-thiazole-4-carboxylic acid], the IC50 in test [1] worked out at 14.9 nM; in test [2], 9.74 nM. Further, in test [3], the Ki was 0.0066 nM.

For `Cc1c(Nc2nc3ccccc3s2)nnc2c1CCCN2c1nc(C(=O)O)c(CCCOc2ccc(C#CCNCC[N+](C)(C)CCCS(=O)(=O)[O-])cc2F)s1` [Example 54, 3-[2-[3-[4-[3-[2-[3-(1,3-Benzothiazol-2-ylamino)-4-methyl-6,7-dihydro-5H-pyrido[2,3-c]pyridazin-8-yl]-4-carboxy-thiazol-5-yl]propoxy]-3-fluoro-phenyl]prop-2-ynylamino]ethyl-dimethyl-ammonio]propane-1-sulfonate], the values for the IC50 in test [1] and in test [2] were 595 nM and 47.2 nM, respectively. The Ki in test [3] was determined as 0.0012 nM.

On to `Cc1c(Nc2nc3ccccc3s2)nnc2c1CCCN2c1nc(C(=O)O)c(CCCOc2ccc(C#CCN3CCCC(O)C3)cc2F)s1` (stereo not drawn) [Example 55, 2-[3-(1,3-Benzothiazol-2-ylamino)-4-methyl-6,7-dihydro-5H-pyrido[2,3-c]pyridazin-8-yl]-5-[3-[2-fluoro-4-[3-(3-hydroxy-1-piperidyl)prop-1-ynyl]phenoxy]propyl]thiazole-4-carboxylic acid], for which the IC50 in test [1] was 5.65 nM; in test [2], 0.949 nM. Moreover, in test [3], the Ki was found to be 0.0092 nM.

For the compound `Cc1c(Nc2nc3ccccc3s2)nnc2c1CCCN2c1nc(C(=O)O)c(CCCOc2ccc(C#CCN3C[C@H]4C[C@H]4C3)cc2F)s1` [Example 56, 5-[3-[4-[3-[(1S,5R)-3-Azabicyclo[3.1.0]hexan-3-yl]prop-1-ynyl]-2-fluoro-phenoxy]propyl]-2-[3-(1,3-benzothiazol-2-ylamino)-4-methyl-6,7-dihydro-5H-pyrido[2,3-c]pyridazin-8-yl]thiazole-4-carboxylic acid], the IC50 in test [1] was found to be 12.9 nM; in test [2], 1.46 nM. Further, in test [3], the Ki amounted to 0.049 nM.

With `Cc1c(Nc2nc3ccccc3s2)nnc2c1CCCN2c1nc(C(=O)O)c(CCCOc2ccc(C#CCN3CCC(N4CCCCC4)CC3)cc2F)s1` [Example 57, 2-[3-(1,3-Benzothiazol-2-ylamino)-4-methyl-6,7-dihydro-5H-pyrido[2,3-c]pyridazin-8-yl]-5-[3-[2-fluoro-4-[3-[4-(1-piperidyl)-1-piperidyl]prop-1-ynyl]phenoxy]propyl]thiazole-4-carboxylic acid], the values for the IC50 in test [1] and in test [2] were 5.54 nM and 0.592 nM, respectively. Besides, the Ki in test [3] was 0.003 nM.

As to `Cc1c(Nc2nc3ccccc3s2)nnc2c1CCCN2c1nc(C(=O)O)c(CCCOc2ccc(C#CCN3CCC4(CC3)CNC(=O)C4)cc2F)s1` [Example 58, 2-[3-(1,3-Benzothiazol-2-ylamino)-4-methyl-6,7-dihydro-5H-pyrido[2,3-c]pyridazin-8-yl]-5-[3-[2-fluoro-4-[3-(3-oxo-2,8-diazaspiro[4.5]decan-8-yl)prop-1-ynyl]phenoxy]propyl]thiazole-4-carboxylic acid], the values for the IC50 in test [1] and in test [2] were 6.65 nM and 0.817 nM, respectively. The Ki in test [3] stood at 0.0048 nM.

For `Cc1c(Nc2nc3ccccc3s2)nnc2c1CCCN2c1nc(C(=O)O)c(CCCOc2ccc(C#CCN(C)C)cc2Br)s1` [Example 59, 2-{3-[(1,3-Benzothiazol-2-yl)amino]-4-methyl-5H,6H,7H,8H-pyrido[2,3-c]pyridazin-8-yl}-5-(3-{2-bromo-4-[3-(dimethylamino)prop-1-yn-1-yl]phenoxy}propyl)-1,3-thiazole-4-carboxylic acid], the IC50 was 17.3 nM in test [1] and 3.36 nM in test [2]. The Ki in test [3] was 0.023 nM.

Turning to `Cc1c(Nc2nc3ccccc3s2)nnc2c1CCCN2c1nc(C(=O)O)c(CCCOc2ccc(N3CCN(C)CC3)cc2F)s1` [Example 60, 2-{3-[(1,3-Benzothiazol-2-yl)amino]-4-methyl-5H,6H,7H,8H-pyrido[2,3-c]pyridazin-8-yl}-5-{3-[2-fluoro-4-(4-methylpiperazin-1-yl)phenoxy]propyl}-1,3-thiazole-4-carboxylic acid], the IC50 was 8.86 nM in test [1] and 2.75 nM in test [2]. Moreover, in test [3], the Ki came out at 0.0089 nM.

Take `Cc1c(Nc2nc3ccccc3s2)nnc2c1CCCN2c1nc(C(=O)O)c(CCCOc2cc3c(cc2F)c(CN(C)C)cn3C)s1` [Example 61, 2-{3-[(1,3-Benzothiazol-2-yl)amino]-4-methyl-5H,6H,7H,8H-pyrido[2,3-c]pyridazin-8-yl}-5-[3-({3-[(dimethylamino)methyl]-5-fluoro-1-methyl-1H-indol-6-yl}oxy)propyl]-1,3-thiazole-4-carboxylic acid]: the figures for the IC50 in test [1] and in test [2] were 120 nM and 122 nM, respectively. Further, the Ki in test [3] turned out to be 0.033 nM.

The values above are taken from patent US12570648B2, “6,7-dihydro-5H-pyrido[2,3-c]pyridazine derivatives and related compounds as Bcl-xL protein inhibitors and pro-apoptotic agents for treating cancer” (LES LABORATOIRES SERVIER, priority 2019, dated 2026).
